Source: US12276654B2, “Chemical probe-dependent evaluation of protein activity and uses thereof” (The University of Chicago, priority 2017, dated 2025)
pIC50: −log10 of the molar value. “Also recorded” adds a separate entry of the source.

What was measured:
[1] = biological target: T1, NCEH1 (Homo sapiens, UniProt Q6PIU2); test: sADPL in situ target engagement in cancer cells, NCEH1; format: cell-based; parameters: endogenous NCEH1 activity in SKOV3 cells; endogenous in cells; host or cells: SKOV3; wild-type PC3; PAFAH2-expressing PC3; settings: inhibitor prior to family-wide probe
T1 sequence (Q6PIU2 1-408): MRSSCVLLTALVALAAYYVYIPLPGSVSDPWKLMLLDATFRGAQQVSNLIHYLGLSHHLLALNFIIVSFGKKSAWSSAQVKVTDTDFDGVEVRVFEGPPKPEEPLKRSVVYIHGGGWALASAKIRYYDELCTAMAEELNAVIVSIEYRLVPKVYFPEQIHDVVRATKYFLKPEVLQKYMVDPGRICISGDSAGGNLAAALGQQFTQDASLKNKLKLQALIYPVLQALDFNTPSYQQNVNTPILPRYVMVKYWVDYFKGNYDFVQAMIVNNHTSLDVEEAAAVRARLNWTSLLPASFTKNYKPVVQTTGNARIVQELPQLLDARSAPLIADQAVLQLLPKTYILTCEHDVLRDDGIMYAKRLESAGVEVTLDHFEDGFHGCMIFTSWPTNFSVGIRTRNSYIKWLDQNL
Protocol: FIG. 23. In situ Target Engagement. Cancer cells were treated with DMSO as the control, with inhibitor prior to family wide probe to pre-block the active site, or with family-wide probe directly. Then sADPL workflow was applied to read out the CT difference. Serine hydrolase NCEH1 and its specific inhibitor JW480, or FAAH and inhibitor PF3845 were applied. The activity fold change was transformed from CT value with PCR amplification factor 1.91 determined by a standard qPCR curve and the activities were normalized to DMSO control at different cell lysate concentrations. […] To quantitatively measure the target engagement, different dose of JW480 was applied to either its target NCEH1, or off-target MGLL.
As another alternative detection method, sADPL is complementary with gel-based and MS-based detection methods. In this design, the inventors treat the live cell with several family-wide probes. The probes will label all the members of the protein families. Then one could get the labeled proteome after the cell lysis. […]
A summary of this assay is provided below: • 1. […] In the oligo design, the orthogonal forward primers were employed for different antibody to enable the multiplexing real time PCR readout. […]
Two amine modified oligos were conjugated to antibody and streptavidin, respectively. […] A Taqman probe was designed for real time PCR quantification. […]

[2] = biological target: T1, NCEH1; test: α-Biotin Western blot gel-based profiling of NCEH1 activity (FP-Bio labeling) in SKOV3 cells; format: cell-based; parameters: endogenous NCEH1 activity in SKOV3 cells; endogenous in cells; host or cells: SKOV3; settings: 1 μM, 4 hr pre-treatment, equivalent NCEH1 protein levels
Protocol: Cells were grown in 6-well plates or 6-cm dishes until reaching 80-90% confluence. FP-biotin (FP-Bio, 10 mM stock in DMSO) was diluted to 2 μM in DMEM, and added to cells at 37° C. for 40 minutes. Cells were then washed in PBS, scraped and lysed by sonication using PBS buffer supplemented with protease inhibitor cocktail (Sigma, #92714-1BTL). Protein concentration was determined by BCA assay (Pierce, #23225), lysate was diluted in Laemmli buffer (4×: 200 mM Tris pH 6.8, 400 mM DTT, 8% SDS, 0.4% bromophenol, 40% glycerol), heated to 95° C. for 5 minutes, and resolved on a 4-12% PAGE gel (ThermoFisher, NP0322BOX). PAGE gels were processed for Western blot as indicated above with IR800-conjugated streptavidin (LI-COR, #926-32230) overnight at 4° C. Images were captured by Odyssey CLx imaging system (LI-COR). Quantification of band intensities was performed using ImageJ software (NIH).

## CC(C)c1ccccc1OC(=O)NCCc1ccc2ccccc2c1 [JW480]
[1]; cancer cells treated in situ, read-out: apparent IC50, dose-dependent inhibition of NCEH1 by sADPL
  pIC50: 7.75
[1]; cancer cells
  NCEH1 activity in inhibitor competition group by sADPL, normalized to DMSO control: bring the activities down to the levels of DMSO controls
[2]
  NCEH1 activity by gel-based profiling (FP-Bio labeling): significant and selective inhibition of NCEH1 activity; also recorded: specifically inhibits labeling of NCEH1
